Experiments:
[1] = tested on: Jurkat T cells and human PBLs; assay: IL-2 secretion from activated T cells (ELISA); type: cell-based; conditions: for IC50: Jurkat T cells and human PBLs, PMA/A23187 stimulation, supernatants after 36 hours, ELISA, read-out: IC50 of inhibition of IL-2 secretion
Procedure: (§1) Jurkat T cells (5×10^5) or human PBLs (1×10^6) were stimulated with anti-CD3 (OKT3, 10 μg/ml)/CD28 (2 μg/ml) or PMA (100 nM)/A23187 (1 μM). For anti-CD3/CD28 stimulation, cells were placed on a culture dish coated with anti-CD3 antibody, and were then treated with anti-CD28 (2 μg/ml) antibody. For superantigen stimulation, T cells were incubated with SEE (1 μg/ml)-pulsed Raji B cells. For pre- or post-treatment experiments, various concentrations of 4H3MC or HCA were added 30 minutes or 60 minutes before stimulation.
Jurkat T cells or human PBLs were stimulated in the same manner as described above with respect to T-cell stimulation and treatment with 4H3MC or HCA. At the indicated time points, the supernatants were collected, and the concentrations of IL-2 in the supernatants were measured using a Duo set Human IL-2 ELISA kit (R&D Systems).

PKC = PKC activity measurement in Jurkat T cell lysate (ELISA-based kinase assay); type: biochemical, human; conditions: Jurkat T cell cytosol fraction, compound 0.01-50 μM, PMA 100 nM
Procedure: Jurkat T cells (1×10^6) were suspended in lysis buffer (1% Triton X-100, 150 mM NaCl, 20 mM Tris pH 7.5, protease inhibitor, phosphatase inhibitor), and then kept at 4° C. for 1 hour and centrifuged at 14,000×g for 30 minutes. Cell lysate was incubated with 4H3MC ([…]), HCA ([…]) or STSN (10 nM) at 4° C. for 30 minutes. PMA (100 nM) was added, and PKC activity was measured with a nonradioactive protein kinase assay based on ELISA. The assay was developed with tetramethylbenzidine substrate, and the color developed proportionally to PKC phosphotransferase activity. The intensity of the color was measured at 450 nm. The data were expressed as relative kinase activity.

[2] = tested on: Jurkat T cells and human PBLs; assay: IL-2 mRNA expression in activated T cells (real-time PCR); type: cell-based
Procedure: as §1
Total RNA was isolated from Jurkat T cells using TRIZOL reagent (JBI, Korea). Reverse transcription of the RNA was performed using RT Pre-Mix (Intron, Korea). The primers and PCR conditions were as follows: […]
The amplification profile was composed of denaturation at 94° C. for 30 seconds, annealing at 60° C. for 20 seconds, and extension at 72° C. for 40 seconds. 30 cycles were preceded by denaturation at […] for 7 minutes. In some experiments, the expression levels of IL-2 mRNA were evaluated by real-time RT-PCR. Total RNA was isolated and cDNA was synthesized as described above. PCR amplification was performed in Step One Real-time PCR system (Applied Biosystems, Foster city, CA) for continuous fluorescence detection system using SYBR (Takara, Japan). Each PCR reaction was performed under the following conditions: 94° C. for 30 sec, 60° C. for 30 sec and 72° C. for 30 sec, plate read (detection of fluorescent product) for cycles, followed by extension at 72° C. for 7 min. Melting curve analysis was done to characterize the double-stranded DNA product. The levels of IL-2 mRNA normalized for GAPDH were expressed as fold changes relative to that of untreated controls. All experiments were performed at least three times.

Jurkat T cells = assay: Cell death assay (microscopy, 7-AAD/annexin V flow cytometry, Hoechst staining); type: cell-based, human; conditions: 16 hours
Procedure: Cell death of Jurkat T cells was examined using a double staining method with 7-AAD and annexin V-PE. Jurkat T cells (1×10^6) were indicated concentrations of 4H3MC for 16 hours, and then suspended in 200 μl of HBSS buffer comprising 7-AAD (1 μg/ml) and were incubated at 37° C. for 10 minutes. After 10 minutes, the cells were incubated with 200 μl of HBSS buffer comprising V-PE (20 μg/ml) and analyzed immediately on a BD FACS Canto™ II Flow Cytometer (BD Biosciences). All experiments were performed at least three times.
Jurkat T cells were treated with 10 μM of 4H3MC for 16 hours, and then pelleted onto a PLL-coated cover glass slide (18-mm diameter; Fisher Scientific, Pittsburgh, Pa.) using a cytospin centrifuge. The pelleted cells were fixed in 2% para-formaldehyde at room temperature for 10 minutes, and then washed three times with PBS. As control, cells were stained with TRITC-phalloidin for detecting actin. The slide was incubated for 2 minutes in PBS containing Hoechst dye (1:105) at room temperature, and then the cells were examined using an FV1000 confocal microscope.

PKCθ = target: T1, PKCθ (Homo sapiens, UniProt Q04759); assay: PKCθ phosphorylation and accumulation at the immunological synapse (confocal imaging); type: cell-based; conditions: Jurkat T cells pretreated with 4H3MC 10 μM, conjugates with SEE-pulsed Raji B cells
T1 construct: endogenous in cells; host or cells: Jurkat T cells conjugated with SEE-pulsed Raji B cells
T1 sequence (Q04759 whole entry): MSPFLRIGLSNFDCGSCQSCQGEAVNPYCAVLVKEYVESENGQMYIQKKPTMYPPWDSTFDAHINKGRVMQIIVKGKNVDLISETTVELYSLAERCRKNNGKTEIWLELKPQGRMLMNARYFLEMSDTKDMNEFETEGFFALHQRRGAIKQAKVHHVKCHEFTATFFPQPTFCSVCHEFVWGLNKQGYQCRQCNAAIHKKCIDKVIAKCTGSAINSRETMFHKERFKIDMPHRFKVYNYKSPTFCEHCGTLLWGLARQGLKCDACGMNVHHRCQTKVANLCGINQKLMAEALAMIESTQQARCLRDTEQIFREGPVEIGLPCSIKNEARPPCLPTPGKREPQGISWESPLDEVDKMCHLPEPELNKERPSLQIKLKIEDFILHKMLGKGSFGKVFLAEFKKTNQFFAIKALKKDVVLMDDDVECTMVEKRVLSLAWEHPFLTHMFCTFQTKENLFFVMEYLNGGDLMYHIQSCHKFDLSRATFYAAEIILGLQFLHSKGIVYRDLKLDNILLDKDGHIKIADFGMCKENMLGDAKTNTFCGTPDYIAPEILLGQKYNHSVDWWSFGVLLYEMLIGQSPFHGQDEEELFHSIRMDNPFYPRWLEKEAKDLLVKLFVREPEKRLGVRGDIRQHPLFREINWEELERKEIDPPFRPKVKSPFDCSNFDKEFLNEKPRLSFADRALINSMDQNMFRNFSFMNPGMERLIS
Procedure: Jurkat T cells were pretreated with 10 μM of 4H3MC for 1 hour, while Raji B cells were stained with 1 μM of CMFDA green tracker for 30 minutes. After washing twice with RPMI medium, Raji B cells were incubated with SEE (1 μg/ml) at 37° C. for 30 minutes. SEE-conjugated Raji B cells were incubated with 4H3MC-treated Jurkat T cells for 10 minutes to form an immunological synapse, and then placed on glass coverslips. The cells were fixed with 2% paraformaldehyde and washed with PBS. After washing, the cells were permeabilized with 0.1% TritonX-100 and incubated with primary antibodies (antibodies against CD3, LFA-1, t-PKCθ, p-PKCθ) overnight. On the next day, the cells were washed with PBS, and then incubated with secondary antibodies (cy3-conjugated goat anti-mouse IgG, Texas Red-conjugated goat anti-rabbit IgG antibodies) at room temperature for 1 hour. After washing, the cells were placed on a slide glass using Dako fluorescent mounting medium (Dako, Denmark), followed by drying. The dried slide samples were examined with an FV1000 confocal laser scanning microscope (Olympus), and CD3, LFA-1, t-PKCθ and p-PKCθ accumulation at the immunological synapse was observed and analyzed.

PKCθ, ERK and p38 kinase = assay: Western blot of phospho-PKCθ, ERK and p38 in activated Jurkat T cells; type: cell-based, human
Procedure: as §1
Jurkat T cells were lysed by cold lysis buffer (1% Triton X-100, 150 mM NaCl, 20 mM Tris, pH 7.5, protease inhibitor and phosphatase inhibitor) for 1 hour, and then centrifuged at 4° C. at 16,000×g for 30 minutes. About 100 μg of the extract lysate was separated through 10% SDS-PAGE. Proteins were transferred into a nitrocellulose membrane by means of Trans-Blot SD semidry transfer cell (Bio-Rad, Hercules, Calif.). The membrane was blocked in 5% skim milk for 1 hour, washed, and then incubated with the indicated antibodies in 3% skim milk overnight. Excess primary antibody was removed by washing the membrane with TBST, and then the membrane was incubated with peroxidase-conjugated secondary antibody for 2 hours. After washing with TBST, bands were visualized by Western blotting detection reagent and then exposed to x-ray film.

AP-1, NF-κB and NFAT = AP-1, NF-κB and NFAT luciferase activity assays; type: cell-based, human; conditions: transfected Jurkat T cells, 4H3MC 10 μM pretreatment 1 hour, PMA/A23187 16 hours
Procedure: Jurkat T cells (1.5×10^6) were transfected with 100 μl of Amaxa's Nucleofector solution (Amaxa, Germany) containing 3 μg of pGL3-AP-1, pGL3-NF-κB or pGL3-NFAT Luc plasmids, and then the cells were transferred to complete medium and cultured at 37° C. After 48 hours of transfection, the transfected cells were pretreated with 4H3MC (10 μM) for 1 hour, and then stimulated with PMA/A23187 for 16 hours. After […], the cells were harvested and lysed with a lysis buffer for luciferase assay (Promega, Madison, Wis.). Cellular debris was removed from lysed proteins by centrifugation at 16,000×g at 4° C. for 30 minutes. Luciferase activity was measured with a Centro LB 960 Luminometer (Berthold Technologies, Germany).

[3] = tested on: atopic skin disease BALB/c mice; assay: DNCB/mite extract-induced atopic skin disease in mice; type: in vivo; conditions: 4H3MC 50 mg/kg orally every day for 4 weeks
Procedure: With reference to a previously reported publication, atopic skin disease was induced using DNCB and a mite extract. BALB/c mice were divided into four groups, and then the skin was peeled off by touching each earlobe five times with a surgical tape (Seo-il Chemistry, Hwa-sung, Korea). On day 0, 20 μl of DNCB (1%) was applied to each peeled earlobe, and on day 4, 20 μl of a mite extract (10 mg/mL) was applied. DNCB and the mite extract were alternately applied once a week for 4 weeks. From day 1, 4H3MC (50 mg/kg) was administered orally everyday for 4 weeks. Using a thickness meter (Kori Seiki MFG Co., Japan), the ear thickness was measured at 24 hours after application of DNCB or the mite extract. After 28 days, blood was sampled, and the serum portions were stored at […]. After blood sampling, the ear tissue was cut and used for histopathological analysis.

[4] = Jurkat T cells pre-activated 30 minutes with anti-CD3/CD28 or PMA/A23187, then 4H3MC 10 μM
[5] = Jurkat T cells, 4H3MC 10 μM pretreatment 1 hour, anti-CD3/CD28 or PMA/A23187

SMILES	IC50 [1] [µM]	PKC activity (PKC)	IL-2 expression (mRNA) ([2]; Jurkat T cells and human PBLs pretreated 1 hour with 4H3MC 0-250 μM, then PMA/A23187 or anti-CD3/CD28 for 6 hours)	concentration at which dramatic inhibition of IL-2 expression was seen ([2]; Jurkat T cells and human PBLs, pretreatment 1 hour, PMA/A23187 or anti-CD3/CD28) [µM]	IL2 mRNA expression, post-treatment [2, 4]	time-dependent IL-2 mRNA expression ([2]; Jurkat T cells, 4H3MC 10 μM pretreatment 1 hour, anti-CD3/CD28 or PMA/A23187 for various times)	fold effectiveness versus HCA in inhibition of IL-2 in T cells ([1]; comparison of IC50 values of 4H3MC and HCA) [fold]	time-dependent IL-2 secretion ([1]; human PBLs, 4H3MC 10 μM pretreatment 1 hour, PMA/A23187)	apoptosis or necrosis (Jurkat T cells; 10-100 μM)	apoptosis or necrosis by Hoechst staining (Jurkat T cells; effective concentration (10 μM))	necrosis (Jurkat T cells; high concentrations (250 μM))	phosphorylation and accumulation of PKCθ at the IS (PKCθ)	phosphorylated forms of PKCθ, ERK and p38, post-treatment (PKCθ, ERK and p38 kinase; [4])	phosphorylation of ERK and p38 (PKCθ, ERK and p38 kinase; [5])	phosphorylation of PKCθ (PKCθ, ERK and p38 kinase; [5])	luciferase activities of NF-κB, AP-1 and NFAT (AP-1, NF-κB and NFAT)	ear symptoms (flushed and swollen) 28 days after induction [3]	ear thickness [3]
O=C(O)C=Cc1ccc(O)cc1 [HCA, p-hydroxycinnamic acid, reference compound]	15 to 18	inhibit PKC activity in vitro																
COc1cc(C=CC=O)ccc1O [4H3MC, 4-Hydroxy-3-methoxycinnamaldehyde]	~2.5	significantly inhibited PKC-specific activity with the lower effective concentration than HCA	significantly inhibited IL-2 expression in a concentration-dependent manner	2 to 10	effectively reduced the expression of IL2 mRNA in pre-activated Jurkat T cells	inhibited IL-2 mRNA expression at the early time point (about 3 hours) after stimulation which lasted over 6 hours	~5	significantly reduced	did not induce apoptosis or necrosis	does not induce apoptosis or necrosis at its effective concentration	induced necrosis in some Jurkat T cells	significantly reduced the phosphorylation as well as accumulation of PKCθ at the IS	significantly reduced	dramatically reduced anti-CD3/CD28- and PMA/A23187-induced phosphorylation of ERK and p38	significantly blocked phosphorylation of PKCθ	considerably reduced PMA/A23187-induced luciferase activities of NF-κB, AP-1 and NFAT	such symptoms were alleviated	became significantly thinner from 8 days

From patent US20170252306A1, “Pharmaceutical Compositions for Preventing and Treating Th1 or Th2 mediated Immune Disease Comprising 4H3MC(4-Hydroxy-3-methoxycinnamaldehyde) as an Active Ingredient” (GWANGJU INSTITUTE OF SCIENCE AND TECHNOLOGY, priority 2016, published 2017)
